Values quoted from earlier work as cited in US5380533A, “Gastroresistant pharmaceutical formulations for oral administration containing bile acids” (Alfa Wassermann S.p.A., priority 1991, dated 1995).
Converted amounts (≈) assume the structure as drawn.

Experiments:
[1] = free bile acid
[2] = pH units
[3] = intestinal pH below 8.4; intestinal bacterial flora
[4] = after having crossed unabsorbed and undissolved the stomach

C[C@H](CCC(=O)O)[C@H]1CC[C@H]2[C@@H]3[C@@H](O)C[C@@H]4C[C@H](O)CC[C@]4(C)[C@H]3CC[C@]12C [ursodeoxycholic acid]
water solubility [1]: 53 µM (≈ 20.8 µg/mL)
pH at which complete solubilization takes place [2]: 8.47
fate of a portion at lower values of intestinal pH [3]: is not absorbed and undergoes a biotransformation to lithocholic acid
dissolution in the intestine [4]: dissolve very slowly in the intestine
